The first experiment deals with MAP3K9 (human) (UniProt P80192). Kind of experiment: radiometric filter-binding kinase assay, Kinase HotSpot. To be noted: compound 0.5 µM; ATP 10 µM.
DMPK (human), sequence (Q09013 whole entry, looked up): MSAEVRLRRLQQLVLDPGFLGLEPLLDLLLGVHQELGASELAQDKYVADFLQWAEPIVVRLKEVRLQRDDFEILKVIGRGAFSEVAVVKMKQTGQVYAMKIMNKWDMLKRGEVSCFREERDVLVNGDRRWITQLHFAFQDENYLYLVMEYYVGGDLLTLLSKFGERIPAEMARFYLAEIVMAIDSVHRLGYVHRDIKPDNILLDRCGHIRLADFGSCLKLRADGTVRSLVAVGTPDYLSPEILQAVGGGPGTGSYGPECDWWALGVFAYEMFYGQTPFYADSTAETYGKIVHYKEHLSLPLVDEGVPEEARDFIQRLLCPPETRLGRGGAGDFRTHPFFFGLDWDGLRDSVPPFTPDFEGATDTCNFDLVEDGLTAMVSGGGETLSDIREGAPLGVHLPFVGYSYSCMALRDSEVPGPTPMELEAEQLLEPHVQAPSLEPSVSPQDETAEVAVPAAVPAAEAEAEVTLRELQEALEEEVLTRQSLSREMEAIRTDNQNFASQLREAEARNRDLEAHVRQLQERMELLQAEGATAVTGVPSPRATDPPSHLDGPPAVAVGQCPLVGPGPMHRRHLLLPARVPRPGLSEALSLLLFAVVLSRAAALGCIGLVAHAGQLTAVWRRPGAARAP
NEK3 (human), sequence (P51956 whole entry, looked up): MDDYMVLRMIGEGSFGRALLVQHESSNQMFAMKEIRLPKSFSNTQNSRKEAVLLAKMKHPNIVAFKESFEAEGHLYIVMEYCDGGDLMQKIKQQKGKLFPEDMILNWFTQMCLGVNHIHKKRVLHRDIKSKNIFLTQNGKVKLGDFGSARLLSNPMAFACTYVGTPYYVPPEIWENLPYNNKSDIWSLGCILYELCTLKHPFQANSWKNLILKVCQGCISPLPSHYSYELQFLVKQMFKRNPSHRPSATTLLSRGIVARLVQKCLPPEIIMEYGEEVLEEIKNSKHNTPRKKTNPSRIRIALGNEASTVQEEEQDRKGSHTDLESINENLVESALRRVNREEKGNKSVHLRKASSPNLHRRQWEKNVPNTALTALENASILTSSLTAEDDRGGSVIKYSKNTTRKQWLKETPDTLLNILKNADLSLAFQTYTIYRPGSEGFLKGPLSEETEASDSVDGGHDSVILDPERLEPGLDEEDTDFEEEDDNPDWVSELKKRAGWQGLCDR
MAP3K5 (human), sequence (Q99683 whole entry, looked up): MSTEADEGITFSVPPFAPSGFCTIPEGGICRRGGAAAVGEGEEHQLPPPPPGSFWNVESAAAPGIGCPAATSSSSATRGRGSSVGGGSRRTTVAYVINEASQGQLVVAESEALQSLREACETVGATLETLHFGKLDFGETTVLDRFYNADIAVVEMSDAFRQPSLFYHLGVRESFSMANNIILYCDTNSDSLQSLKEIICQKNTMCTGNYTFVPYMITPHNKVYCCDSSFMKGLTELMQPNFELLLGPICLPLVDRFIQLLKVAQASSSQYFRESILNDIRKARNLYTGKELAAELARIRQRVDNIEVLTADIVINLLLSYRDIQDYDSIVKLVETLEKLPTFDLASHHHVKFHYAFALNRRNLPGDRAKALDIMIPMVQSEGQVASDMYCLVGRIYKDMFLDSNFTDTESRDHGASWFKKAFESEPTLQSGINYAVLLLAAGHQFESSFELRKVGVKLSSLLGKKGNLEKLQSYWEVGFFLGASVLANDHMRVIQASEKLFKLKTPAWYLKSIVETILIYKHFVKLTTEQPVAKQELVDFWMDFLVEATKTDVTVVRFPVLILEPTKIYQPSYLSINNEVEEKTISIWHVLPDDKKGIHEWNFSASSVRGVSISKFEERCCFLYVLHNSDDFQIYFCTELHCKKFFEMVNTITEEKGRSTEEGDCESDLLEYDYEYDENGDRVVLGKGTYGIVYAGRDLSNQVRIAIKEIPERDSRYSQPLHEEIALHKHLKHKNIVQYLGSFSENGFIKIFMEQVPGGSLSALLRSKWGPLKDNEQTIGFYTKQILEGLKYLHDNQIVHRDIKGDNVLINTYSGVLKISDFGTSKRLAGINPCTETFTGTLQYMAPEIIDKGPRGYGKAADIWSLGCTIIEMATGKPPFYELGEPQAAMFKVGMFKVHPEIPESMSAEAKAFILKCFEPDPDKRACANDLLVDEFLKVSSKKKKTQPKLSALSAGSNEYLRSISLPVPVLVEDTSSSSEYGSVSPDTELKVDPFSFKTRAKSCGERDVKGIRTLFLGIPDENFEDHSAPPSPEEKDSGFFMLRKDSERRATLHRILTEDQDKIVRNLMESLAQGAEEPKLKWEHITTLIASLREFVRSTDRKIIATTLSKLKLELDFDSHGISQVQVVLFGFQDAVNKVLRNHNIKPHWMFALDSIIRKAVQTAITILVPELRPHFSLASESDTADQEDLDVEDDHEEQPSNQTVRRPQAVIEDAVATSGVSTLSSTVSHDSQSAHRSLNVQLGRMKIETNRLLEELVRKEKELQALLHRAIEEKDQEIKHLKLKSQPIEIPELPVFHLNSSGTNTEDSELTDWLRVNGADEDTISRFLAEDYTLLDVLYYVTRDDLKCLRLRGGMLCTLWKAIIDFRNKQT
With `O=C1NC(=O)c2c1c1c3ccccc3n3c1c1c2c2ccccc2n1C1CCC3O1`, the residual activity came to 8.72%.

Turning to `CC(C)N(CCC(=O)c1ccc2ccccc2c1)Cc1ccccc1`, the residual activity stood at 104%.

`Cc1ccc(NC2=CC(=O)c3sc(C)nc3C2=O)cc1`: the residual activity amounted to 86.7%.

A further experiment has as its target RAF1 (human) (UniProt P04049). Described as above. The settings on record: compound 0.5 µM; ATP 10 µM.
As to `O=C1NC(=O)c2c1c1c3ccccc3n3c1c1c2c2ccccc2n1C1CCC3O1`, the residual activity came out at 121%.

Regarding `CC(C)N(CCC(=O)c1ccc2ccccc2c1)Cc1ccccc1`, the residual activity was determined as 87.3%.

Take `Cc1ccc(NC2=CC(=O)c3sc(C)nc3C2=O)cc1`: the residual activity stood at 90.5%.

The target of the next experiment is PIM2 (human) (UniProt Q9P1W9). The experiment is described as above. To be noted: compound 0.5 µM; ATP 10 µM.
PIM2 (human), sequence (Q9P1W9 whole entry, looked up): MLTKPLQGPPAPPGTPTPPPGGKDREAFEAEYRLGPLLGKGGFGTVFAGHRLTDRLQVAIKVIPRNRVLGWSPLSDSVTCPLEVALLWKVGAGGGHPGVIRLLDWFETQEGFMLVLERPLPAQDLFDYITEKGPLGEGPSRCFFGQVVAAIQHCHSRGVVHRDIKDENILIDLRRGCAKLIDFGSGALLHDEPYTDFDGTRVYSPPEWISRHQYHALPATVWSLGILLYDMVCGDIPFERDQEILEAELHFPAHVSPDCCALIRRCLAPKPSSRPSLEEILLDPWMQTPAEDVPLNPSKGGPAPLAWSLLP
In the case of `O=C1NC(=O)c2c1c1c3ccccc3n3c1c1c2c2ccccc2n1C1CCC3O1`, the residual activity came to 1.86%.

With `CC(C)N(CCC(=O)c1ccc2ccccc2c1)Cc1ccccc1`, the residual activity was 104%.

Turning to `Cc1ccc(NC2=CC(=O)c3sc(C)nc3C2=O)cc1`, the residual activity stood at 103%.

The target in a further experiment is KDR (human) (UniProt P35968). The description is as above. To be noted: compound 0.5 µM; ATP 10 µM.
On to `O=C1NC(=O)c2c1c1c3ccccc3n3c1c1c2c2ccccc2n1C1CCC3O1`, for which the residual activity stood at 4.55%.

`CC(C)N(CCC(=O)c1ccc2ccccc2c1)Cc1ccccc1`: the residual activity came to 98.9%.

For the compound `Cc1ccc(NC2=CC(=O)c3sc(C)nc3C2=O)cc1`, the residual activity is 101%.

A further experiment concerns the target GRK5 (human) (UniProt P34947). The experiment is described as above. The settings on record: compound 0.5 µM; ATP 10 µM.
On to `O=C1NC(=O)c2c1c1c3ccccc3n3c1c1c2c2ccccc2n1C1CCC3O1`, for which the residual activity worked out at 88.7%.

With `CC(C)N(CCC(=O)c1ccc2ccccc2c1)Cc1ccccc1`, the residual activity was found to be 93.7%.

As for `Cc1ccc(NC2=CC(=O)c3sc(C)nc3C2=O)cc1`, the residual activity amounted to 106%.

The next experiment has as its target IGF1R (human) (UniProt P08069). The description is as above. To be noted: compound 0.5 µM; ATP 10 µM.
Regarding `O=C1NC(=O)c2c1c1c3ccccc3n3c1c1c2c2ccccc2n1C1CCC3O1`, the residual activity is 63.8%.

Consider `CC(C)N(CCC(=O)c1ccc2ccccc2c1)Cc1ccccc1`, for which the residual activity was 107%.

For the compound `Cc1ccc(NC2=CC(=O)c3sc(C)nc3C2=O)cc1`, the residual activity came to 92.2%.

The target in another experiment is AURKC (human) (UniProt Q9UQB9). Described as above. To be noted: compound 0.5 µM; ATP 10 µM.
AURKC (human), sequence (Q9UQB9 whole entry, looked up): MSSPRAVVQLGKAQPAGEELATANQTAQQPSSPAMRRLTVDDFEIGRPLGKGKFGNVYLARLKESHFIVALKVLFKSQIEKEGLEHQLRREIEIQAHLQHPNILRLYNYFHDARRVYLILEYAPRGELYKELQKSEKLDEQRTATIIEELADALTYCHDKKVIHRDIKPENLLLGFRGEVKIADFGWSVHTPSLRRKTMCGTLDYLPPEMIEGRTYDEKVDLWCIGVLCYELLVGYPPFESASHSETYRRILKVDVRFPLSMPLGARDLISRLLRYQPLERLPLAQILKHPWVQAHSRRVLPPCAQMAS
Take `O=C1NC(=O)c2c1c1c3ccccc3n3c1c1c2c2ccccc2n1C1CCC3O1`: the residual activity was 36.5%.

Consider `CC(C)N(CCC(=O)c1ccc2ccccc2c1)Cc1ccccc1`, for which the residual activity was 97.5%.

In the case of `Cc1ccc(NC2=CC(=O)c3sc(C)nc3C2=O)cc1`, the residual activity worked out at 90.7%.

A further experiment addresses STK10 (human) (UniProt O94804). Described as above. To be noted: compound 0.5 µM; ATP 10 µM.
For `O=C1NC(=O)c2c1c1c3ccccc3n3c1c1c2c2ccccc2n1C1CCC3O1`, the residual activity is 9.25%.

In the case of `CC(C)N(CCC(=O)c1ccc2ccccc2c1)Cc1ccccc1`, the residual activity turned out to be 93.6%.

In the case of `Cc1ccc(NC2=CC(=O)c3sc(C)nc3C2=O)cc1`, the residual activity is 95%.

Another experiment has as its target MAP3K5 (human) (UniProt Q99683). The description is as above. The settings on record: compound 0.5 µM; ATP 10 µM.
In the case of `O=C1NC(=O)c2c1c1c3ccccc3n3c1c1c2c2ccccc2n1C1CCC3O1`, the residual activity came out at 56.2%.

Consider `CC(C)N(CCC(=O)c1ccc2ccccc2c1)Cc1ccccc1`, for which the residual activity stood at 103%.

Regarding `Cc1ccc(NC2=CC(=O)c3sc(C)nc3C2=O)cc1`, the residual activity stood at 119%.

Another experiment deals with CDK7 CCNH MNAT1 (human) (UniProt P50613+P51948+P51946). The experiment is described as above. To be noted: compound 0.5 µM; ATP 10 µM.
For the compound `O=C1NC(=O)c2c1c1c3ccccc3n3c1c1c2c2ccccc2n1C1CCC3O1`, the residual activity came out at 80.4%.

As to `CC(C)N(CCC(=O)c1ccc2ccccc2c1)Cc1ccccc1`, the residual activity was found to be 98%.

Consider `Cc1ccc(NC2=CC(=O)c3sc(C)nc3C2=O)cc1`, for which the residual activity came to 95.4%.

For the next experiment, the target named is BMX (human) (UniProt P51813). The description is as above. To be noted: compound 0.5 µM; ATP 10 µM.
For the compound `O=C1NC(=O)c2c1c1c3ccccc3n3c1c1c2c2ccccc2n1C1CCC3O1`, the residual activity came out at 27.5%.

For the compound `CC(C)N(CCC(=O)c1ccc2ccccc2c1)Cc1ccccc1`, the residual activity was found to be 102%.

With `Cc1ccc(NC2=CC(=O)c3sc(C)nc3C2=O)cc1`, the residual activity came out at 100%.

A further experiment addresses NEK3 (human) (UniProt P51956). The experiment is described as above. The settings on record: compound 0.5 µM; ATP 10 µM.
On to `O=C1NC(=O)c2c1c1c3ccccc3n3c1c1c2c2ccccc2n1C1CCC3O1`, for which the residual activity was 102%.

As to `CC(C)N(CCC(=O)c1ccc2ccccc2c1)Cc1ccccc1`, the residual activity was found to be 101%.

As for `Cc1ccc(NC2=CC(=O)c3sc(C)nc3C2=O)cc1`, the residual activity came to 88.2%.

In a further experiment the target is MAPK8 (human) (UniProt P45983). The experiment is described as above. To be noted: compound 0.5 µM; ATP 10 µM.
MAPK8 (human), sequence (P45983 whole entry, looked up): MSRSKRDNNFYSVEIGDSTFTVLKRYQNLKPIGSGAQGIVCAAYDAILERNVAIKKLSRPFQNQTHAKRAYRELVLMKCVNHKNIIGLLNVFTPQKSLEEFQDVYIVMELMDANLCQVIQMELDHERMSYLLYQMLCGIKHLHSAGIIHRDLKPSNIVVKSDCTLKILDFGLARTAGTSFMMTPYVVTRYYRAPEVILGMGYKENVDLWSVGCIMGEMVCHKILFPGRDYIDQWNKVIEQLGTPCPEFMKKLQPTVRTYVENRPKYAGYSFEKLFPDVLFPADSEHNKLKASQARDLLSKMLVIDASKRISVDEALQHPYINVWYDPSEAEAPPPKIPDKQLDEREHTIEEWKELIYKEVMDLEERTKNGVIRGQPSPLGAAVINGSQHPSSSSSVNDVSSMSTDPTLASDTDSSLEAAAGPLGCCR
With `O=C1NC(=O)c2c1c1c3ccccc3n3c1c1c2c2ccccc2n1C1CCC3O1`, the residual activity was found to be 98.5%.

For the compound `CC(C)N(CCC(=O)c1ccc2ccccc2c1)Cc1ccccc1`, the residual activity came to 88%.

As for `Cc1ccc(NC2=CC(=O)c3sc(C)nc3C2=O)cc1`, the residual activity is 100%.

The next experiment addresses DMPK (human) (UniProt Q09013). The experiment is described as above. To be noted: compound 0.5 µM; ATP 10 µM.
As for `O=C1NC(=O)c2c1c1c3ccccc3n3c1c1c2c2ccccc2n1C1CCC3O1`, the residual activity stood at 98.8%.

In the case of `CC(C)N(CCC(=O)c1ccc2ccccc2c1)Cc1ccccc1`, the residual activity is 108%.

With `Cc1ccc(NC2=CC(=O)c3sc(C)nc3C2=O)cc1`, the residual activity worked out at 103%.

The next experiment has as its target CDK1 CCNB1 (human) (UniProt P06493+P14635). Described as above. To be noted: compound 0.5 µM; ATP 10 µM.
Consider `O=C1NC(=O)c2c1c1c3ccccc3n3c1c1c2c2ccccc2n1C1CCC3O1`, for which the residual activity is 29.9%.

Take `CC(C)N(CCC(=O)c1ccc2ccccc2c1)Cc1ccccc1`: the residual activity is 104%.

Consider `Cc1ccc(NC2=CC(=O)c3sc(C)nc3C2=O)cc1`, for which the residual activity was 69.7%.

In a further experiment the target is GRK6 (human) (UniProt P43250). The description is as above. The settings on record: compound 0.5 µM; ATP 10 µM.
Regarding `O=C1NC(=O)c2c1c1c3ccccc3n3c1c1c2c2ccccc2n1C1CCC3O1`, the residual activity was found to be 55.6%.

In the case of `CC(C)N(CCC(=O)c1ccc2ccccc2c1)Cc1ccccc1`, the residual activity was 87.1%.

For the compound `Cc1ccc(NC2=CC(=O)c3sc(C)nc3C2=O)cc1`, the residual activity is 96.8%.

The target in another experiment is PRKCI (human) (UniProt P41743). The experiment is described as above. To be noted: compound 0.5 µM; ATP 10 µM.
PRKCI (human), sequence (P41743 whole entry, looked up): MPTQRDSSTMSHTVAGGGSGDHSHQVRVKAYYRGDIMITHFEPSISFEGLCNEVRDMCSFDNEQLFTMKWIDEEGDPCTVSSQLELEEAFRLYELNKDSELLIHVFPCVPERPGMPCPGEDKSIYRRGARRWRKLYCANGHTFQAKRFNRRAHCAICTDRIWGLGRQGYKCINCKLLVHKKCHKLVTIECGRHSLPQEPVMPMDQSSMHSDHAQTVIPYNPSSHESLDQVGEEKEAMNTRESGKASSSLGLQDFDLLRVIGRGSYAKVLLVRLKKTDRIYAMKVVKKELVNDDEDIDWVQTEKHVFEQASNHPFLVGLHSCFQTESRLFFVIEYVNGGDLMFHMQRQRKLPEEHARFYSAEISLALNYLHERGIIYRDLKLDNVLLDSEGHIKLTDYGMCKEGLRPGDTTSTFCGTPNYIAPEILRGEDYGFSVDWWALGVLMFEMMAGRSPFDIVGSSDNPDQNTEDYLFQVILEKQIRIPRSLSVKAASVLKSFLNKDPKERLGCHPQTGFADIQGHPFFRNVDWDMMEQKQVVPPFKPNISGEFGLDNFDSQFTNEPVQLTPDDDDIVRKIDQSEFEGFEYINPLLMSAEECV
Take `O=C1NC(=O)c2c1c1c3ccccc3n3c1c1c2c2ccccc2n1C1CCC3O1`: the residual activity is 86.4%.

For the compound `CC(C)N(CCC(=O)c1ccc2ccccc2c1)Cc1ccccc1`, the residual activity came to 97.1%.

For the compound `Cc1ccc(NC2=CC(=O)c3sc(C)nc3C2=O)cc1`, the residual activity came out at 96.9%.

In a further experiment the target is INSRR (human) (UniProt P14616). The experiment is described as above. To be noted: compound 0.5 µM; ATP 10 µM.
Turning to `O=C1NC(=O)c2c1c1c3ccccc3n3c1c1c2c2ccccc2n1C1CCC3O1`, the residual activity is 7.16%.

As to `CC(C)N(CCC(=O)c1ccc2ccccc2c1)Cc1ccccc1`, the residual activity is 90.1%.

Consider `Cc1ccc(NC2=CC(=O)c3sc(C)nc3C2=O)cc1`, for which the residual activity stood at 90%.

Another experiment deals with NEK4 (human) (UniProt P51957). Described as above. To be noted: compound 0.5 µM; ATP 10 µM.
NEK4 (human), sequence (P51957 whole entry, looked up): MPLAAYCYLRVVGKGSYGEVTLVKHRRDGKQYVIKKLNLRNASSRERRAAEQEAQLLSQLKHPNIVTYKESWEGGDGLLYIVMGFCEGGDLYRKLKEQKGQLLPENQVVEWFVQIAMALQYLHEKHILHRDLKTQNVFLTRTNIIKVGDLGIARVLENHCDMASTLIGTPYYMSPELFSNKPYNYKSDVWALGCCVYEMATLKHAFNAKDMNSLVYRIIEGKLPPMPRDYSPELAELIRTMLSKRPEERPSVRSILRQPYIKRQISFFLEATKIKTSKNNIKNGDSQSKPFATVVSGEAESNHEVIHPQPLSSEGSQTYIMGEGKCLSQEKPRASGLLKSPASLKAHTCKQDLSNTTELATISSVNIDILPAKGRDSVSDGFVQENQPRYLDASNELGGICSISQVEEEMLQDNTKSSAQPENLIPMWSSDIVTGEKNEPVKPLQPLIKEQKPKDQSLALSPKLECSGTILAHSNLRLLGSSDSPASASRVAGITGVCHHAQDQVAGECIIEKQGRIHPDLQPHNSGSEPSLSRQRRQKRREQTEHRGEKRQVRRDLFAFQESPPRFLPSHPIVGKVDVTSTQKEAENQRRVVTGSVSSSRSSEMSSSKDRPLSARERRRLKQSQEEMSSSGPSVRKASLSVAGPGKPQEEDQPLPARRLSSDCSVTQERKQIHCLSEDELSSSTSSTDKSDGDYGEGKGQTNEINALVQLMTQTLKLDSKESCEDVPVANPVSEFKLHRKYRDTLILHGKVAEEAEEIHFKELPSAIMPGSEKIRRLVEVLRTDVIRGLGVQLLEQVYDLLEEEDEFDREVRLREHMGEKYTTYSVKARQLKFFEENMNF
On to `O=C1NC(=O)c2c1c1c3ccccc3n3c1c1c2c2ccccc2n1C1CCC3O1`, for which the residual activity is 22%.

`CC(C)N(CCC(=O)c1ccc2ccccc2c1)Cc1ccccc1`: the residual activity was determined as 95.7%.

`Cc1ccc(NC2=CC(=O)c3sc(C)nc3C2=O)cc1`: the residual activity was 95.3%.

The target in another experiment is SRPK1 (human) (UniProt Q96SB4). Described as above. To be noted: compound 0.5 µM; ATP 10 µM.
`O=C1NC(=O)c2c1c1c3ccccc3n3c1c1c2c2ccccc2n1C1CCC3O1`: the residual activity turned out to be 88.1%.

Regarding `CC(C)N(CCC(=O)c1ccc2ccccc2c1)Cc1ccccc1`, the residual activity came to 103%.

In the case of `Cc1ccc(NC2=CC(=O)c3sc(C)nc3C2=O)cc1`, the residual activity is 92.6%.

The target in a further experiment is MAP4K4 (human) (UniProt O95819). Described as above. The settings on record: compound 0.5 µM; ATP 10 µM.
Consider `O=C1NC(=O)c2c1c1c3ccccc3n3c1c1c2c2ccccc2n1C1CCC3O1`, for which the residual activity is 0.995%.

`CC(C)N(CCC(=O)c1ccc2ccccc2c1)Cc1ccccc1`: the residual activity was 96.7%.

In the case of `Cc1ccc(NC2=CC(=O)c3sc(C)nc3C2=O)cc1`, the residual activity was determined as 84.5%.

The values above are taken from the kinase profiling compilation of Christmann-Franck et al. (2016).
